For test [1], the target named is T1, hFAAH (Homo sapiens, UniProt O00519).
T1 sequence (O00519 1-579): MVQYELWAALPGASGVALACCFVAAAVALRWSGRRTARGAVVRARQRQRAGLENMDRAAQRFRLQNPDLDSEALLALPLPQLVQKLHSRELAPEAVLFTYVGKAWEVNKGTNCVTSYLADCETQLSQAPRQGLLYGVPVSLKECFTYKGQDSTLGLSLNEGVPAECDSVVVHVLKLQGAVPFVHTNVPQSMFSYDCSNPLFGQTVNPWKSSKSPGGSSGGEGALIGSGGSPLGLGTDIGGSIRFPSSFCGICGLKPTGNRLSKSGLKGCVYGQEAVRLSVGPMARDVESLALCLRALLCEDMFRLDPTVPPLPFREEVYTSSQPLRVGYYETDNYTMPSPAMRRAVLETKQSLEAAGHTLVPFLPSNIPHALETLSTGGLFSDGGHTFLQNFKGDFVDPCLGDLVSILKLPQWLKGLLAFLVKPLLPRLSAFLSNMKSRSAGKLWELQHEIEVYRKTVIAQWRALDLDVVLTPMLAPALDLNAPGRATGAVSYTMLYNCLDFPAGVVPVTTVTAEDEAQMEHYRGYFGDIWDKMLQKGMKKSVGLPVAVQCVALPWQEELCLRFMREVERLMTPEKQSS
Kind of test: Human FAAH inhibition assay (Cayman's assay kit). Conditions: IC50, mean ± SEM (n = 3).

The target of test [2] is T2, hMAGL (Homo sapiens, UniProt Q99685).
T2 sequence (Q99685 1-303): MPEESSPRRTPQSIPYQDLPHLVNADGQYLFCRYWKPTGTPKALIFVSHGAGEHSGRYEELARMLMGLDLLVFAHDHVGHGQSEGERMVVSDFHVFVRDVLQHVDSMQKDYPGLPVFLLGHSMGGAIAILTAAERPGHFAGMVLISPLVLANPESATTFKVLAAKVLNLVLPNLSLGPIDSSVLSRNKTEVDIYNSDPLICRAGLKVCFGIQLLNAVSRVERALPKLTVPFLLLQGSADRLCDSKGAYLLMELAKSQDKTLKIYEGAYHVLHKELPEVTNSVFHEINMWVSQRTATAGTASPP
Kind of test: Human MAGL inhibition assay (Cayman's assay kit).

Test [3] relates to formalin-induced nociception. Kind of test: Formalin-induced analgesic (nociception) test. The class given is in vivo, Male Wistar rats. An excerpt: The formalin-induced analgesic test is an extensively acknowledged animal nociception model. In order to evaluate both central and peripheral effects of the compound (20), formalin-induced nociception model was selected for analgesic activity. The formalin induced behavioral response comprises two typical phases, stage I and II. Stage I persists up to five minutes after formalin injection and is characterized by acute pain with vigorous licking and biting of the injected site. Stage I consists the action formalin on afferent C-fiber nociceptors. While Stage II starts 10–30 min after formalin injection and persists till 60 min, characterized by periodic licking and biting of the injected site. Stage II imitates the action of central sensitization of the spinal dorsal horn neurons.
Figure 5 Formalin-induced analgesic test; a dose of the test compound 20 (5, 10, 30, and 50 mg/kg, p.o, suspended in 0.5% CMC) was administered 4 h before formalin injection (50 µL, 2.5%). Reference drug, gabapentin (100 mg/kg, i.p, dissolved in 0.9% normal saline) was injected 30 min before formalin injection. Total paw licking and biting duration, Stage I (white bar, 0–5 min) and stage II (black bar, 10–30 min) was recorded as a measure of pain behavior. Data is represented as mean ± SEM from a group of 10 animals. * p < 0.05, ** p < 0.01, p > 0.05 (NS, nonsignificant) vs. control (vehicle). GBP: Gabapentin; D5, D10, D30, andD50 are the dose concentrations of test compound 20.
Male Wistar rats (180–200 g) were obtained with the permission of IAEC (proposal number 1048) from Jamia Hamdard, New Delhi, India. The results of test compound 20 and reference drug, Gabapentin (GBP), were statistically compared with the control group.

Entries after “also recorded” stand apart in the source; their conditions may differ.

Here are results for 2 compounds from article PMC8074287, “Analgesic and Anticancer Activity of Benzoxazole Clubbed 2-Pyrrolidinones as Novel Inhibitors of Monoacylglycerol Lipase” (Molecules, 2021).

The term IC50 denotes the point on the concentration scale where inhibition reaches its midpoint. A lower IC50 goes with higher potency. `O=C1CC(c2nc3ccccc3o2)CN1c1ccc([N+](=O)[O-])cc1` (stereo not drawn) [Compound 19, 4-(Benzo[d]oxazol-2-yl)-1-(4-nitrophenyl)pyrrolidin-2-one]: the IC50 in test [1] came out at 55 ± 2.7 µM; in test [2], 0.0084 ± 0.0019 µM.
As to `NS(=O)(=O)c1ccc(N2CC(c3nc4ccccc4o3)CC2=O)cc1` (stereo not drawn) [Compound 20, 4-(4-(Benzo[d]oxazol-2-yl)-2-oxopyrrolidin-1-yl)benzenesulfonamide], the “pain response in acute (Stage I) and late (Stage II) phases” value in test [3] (5, 10, 30, and 50 mg/kg p.o., 4 h prior to formalin injection) was “reduced the pain response in acute and late stages in a dose-dependent manner; also recorded: reduced the pain response significantly both in acute (Stage I) and late (Stage II) phases, in a dose-dependent manner; also recorded: reduced the pain response significantly both in acute (stage I) and late (stage II) phases in a dose-dependent manner”. Besides, the “reduction in pain response compared with positive control GBP” value in test [3] (at 30 mg/kg p.o., GBP 100 mg/kg i.p.) is reported as “better potency than the positive control gabapentin (GBP)”. The half-maximal inhibitory concentration (IC50) in test [1] is 68 ± 2.1 µM; in test [2], 0.0076 ± 0.0008 µM.
